Molecular target: T1, mGluR5 (Homo sapiens, UniProt P41594)
T1 construct: expressed in transfected cells
Assay: inhibition of the glutamate (agonist) induced elevation of the inositol phosphate turnover
Format: cell-based
Details: inhibition of glutamate induced elevation of inositol phosphate turnover at 0.1 μM
Description: This can be determined in vitro for example at recombinant human metabotropic glutamate receptors, especially PLC-coupled subtypes thereof such as mGluR5, using different procedures like, for example, measurement of the inhibition of the agonist induced elevation of intracellular Ca^2+ concentration in accordance with L. P. Daggett et al., Neuropharm. Vol. 34, pages 871-886 (1995), P. J. Flor et al., J. Neurochem. Vol. 67, pages 58-63 (1996) or by determination to what extent the agonist induced elevation of the inositol phosphate turnover is inhibited as described by T. Knoepfel et al., Eur. J. Pharmacol. Vol. 288, pages 389-392 (1994), L. P. Daggett et al., Neuropharm. Vol. 67, pages 58-63 (1996) and references cited therein. Isolation and expression of human mGluR subtypes are described in U.S. Pat. No. 5,521,297. Selected agents of the invention show IC50 values for the inhibition of the agonist (e.g. glutamate or quisqualate) induced elevation of intracellular Ca2+ concentration or the agonist (e.g. glutamate or quisqualate) induced inositol phosphate turnover, measured in recombinant cells expressing hmGluR^5a of about 0.1 nM to about 50 μM.
Activity of compounds of the present invention was examined by determination to what extent the agonist induced elevation of the inositol phosphate turnover is inhibited as described by T. Knoepfel et al., Eur. J. Pharmacol. Vol. 288, pages 389-392 (1994), L. P. Daggett et al., Neuropharm. Vol. 67, pages 58-63 (1996) and references cited therein.
The table below represents percentages of inhibition of the glutamate induced elevation of the inositol phosphate turnover at a concentration of 0.1 μM.

T1 sequence (P41594 21-1180 isoform P41594-2 limits assumed): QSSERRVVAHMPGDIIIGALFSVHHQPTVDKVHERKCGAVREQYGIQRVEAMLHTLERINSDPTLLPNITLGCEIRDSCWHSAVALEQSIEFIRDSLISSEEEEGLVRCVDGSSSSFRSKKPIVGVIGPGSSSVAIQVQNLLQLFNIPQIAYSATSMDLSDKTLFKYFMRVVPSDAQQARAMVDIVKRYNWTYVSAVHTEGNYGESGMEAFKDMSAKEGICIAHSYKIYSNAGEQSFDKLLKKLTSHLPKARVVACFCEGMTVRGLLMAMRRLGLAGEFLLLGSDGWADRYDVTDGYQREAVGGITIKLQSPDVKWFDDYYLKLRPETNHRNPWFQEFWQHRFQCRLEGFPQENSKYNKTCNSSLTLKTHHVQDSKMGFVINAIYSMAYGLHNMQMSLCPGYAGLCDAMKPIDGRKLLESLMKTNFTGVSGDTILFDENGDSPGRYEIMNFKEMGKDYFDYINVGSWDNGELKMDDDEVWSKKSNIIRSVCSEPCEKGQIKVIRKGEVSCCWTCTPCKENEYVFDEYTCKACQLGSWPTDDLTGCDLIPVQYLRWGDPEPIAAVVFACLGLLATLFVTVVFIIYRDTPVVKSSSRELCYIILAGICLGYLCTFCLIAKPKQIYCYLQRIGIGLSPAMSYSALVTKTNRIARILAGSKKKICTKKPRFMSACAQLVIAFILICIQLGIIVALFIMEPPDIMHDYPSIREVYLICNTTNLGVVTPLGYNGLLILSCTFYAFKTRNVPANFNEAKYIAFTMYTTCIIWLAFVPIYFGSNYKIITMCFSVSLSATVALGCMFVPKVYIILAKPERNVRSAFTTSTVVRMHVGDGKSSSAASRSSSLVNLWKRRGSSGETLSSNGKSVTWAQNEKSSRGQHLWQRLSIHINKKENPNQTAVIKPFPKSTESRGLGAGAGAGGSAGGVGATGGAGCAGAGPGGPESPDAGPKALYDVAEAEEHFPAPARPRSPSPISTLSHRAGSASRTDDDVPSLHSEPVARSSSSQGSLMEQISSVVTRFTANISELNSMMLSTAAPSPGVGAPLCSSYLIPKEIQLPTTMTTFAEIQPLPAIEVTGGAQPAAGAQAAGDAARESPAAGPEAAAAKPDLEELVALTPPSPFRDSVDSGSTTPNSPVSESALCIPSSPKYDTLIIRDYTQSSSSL

| Structure (SMILES) | inhibition at 0.1 µM [%] | mGluR5-activity in [%] inhibition at 0.1 μM [%] |
| --- | --- | --- |
| CCCn1c(-c2cnc(Nc3ccc4ncccc4c3)c(Cl)c2)nc2cccc(Cl)c21 [Example 64, [3-Chloro-5-(7-chloro-1-propyl-1H-benzoimidazol-2-yl)-pyridin-2-yl]-quinolin-6-yl-amine] | 17 |  |
| CCCn1c(-c2cnc(Nc3ccc(C)cc3)c(Cl)c2)nc2ccc(F)cc21 [Example 65, [3-Chloro-5-(6-fluoro-1-propyl-1H-benzoimidazol-2-yl)-pyridin-2-yl]-p-tolyl-amine] | 92 |  |
| CCCn1c(-c2cnc(Nc3ccc(OC)cc3)c(Cl)c2)nc2ccc(F)cc21 [Example 66, [3-Chloro-5-(6-fluoro-1-propyl-1H-benzoimidazol-2-yl)-pyridin-2-yl]-(4-methoxy-phenyl)-amine] | 93 |  |
| CCCn1c(-c2cnc(Nc3c(F)cccc3F)c(Cl)c2)nc2cccc(Cl)c21 [Example 67, [3-Chloro-5-(7-chloro-1-propyl-1H-benzoimidazol-2-yl)-pyridin-2-yl]-(2,6-difluoro-phenyl)-amine] | 42 |  |
| CCCn1c(-c2cnc(Nc3ccc(N(C)C)nc3)c(Cl)c2)nc2ccc(F)cc21 [Example 68, N-5-[3-Chloro-5-(6-fluoro-1-propyl-1H-benzoimidazol-2-yl)-pyridin-2-yl]-N-2,N-2-dimethyl-pyridine-2,5-diamine] |  | 43 |
| CCCn1c(-c2cnc(Nc3ccc(N(C)C)nc3)c(Cl)c2)nc2ccccc21 [Example 69, N-5-[3-Chloro-5-(1-propyl-1H-benzoimidazol-2-yl)-pyridin-2-yl]-N2,N-2-dimethyl-pyridine-2,5-diamine] |  | 32 |
| CCCn1c(-c2cnc(Nc3ccc(N(C)C)nc3)c(Cl)c2)nc2cccc(Cl)c21 [Example 70, N-5-[3-Chloro-5-(7-chloro-1-propyl-1H-benzoimidazol-2-yl)-pyridin-2-yl]-N2,N-2-dimethyl-pyridine-2,5-diamine] |  | 90 |
| CCCn1c(-c2cnc(Nc3ccc(NC(C)=O)nc3)c(Cl)c2)nc2ccc(F)cc21 [Example 71, N-{5-[3-Chloro-5-(6-fluoro-1-propyl-1H-benzoimidazol-2-yl)-pyridin-2-ylamino]-pyridin-2-yl}-acetamide] | 20 |  |
| CCCn1c(-c2cnc(Nc3ccc(N)nc3)c(Cl)c2)nc2ccc(F)cc21 [Example 71b, N-5-[3-Chloro-5-(6-fluoro-1-propyl-1H-benzoimidazol-2-yl)-pyridin-2-yl]-pyridine-2,5-diamine] |  | 100 |
| CCCn1c(-c2cnc(Nc3cnccn3)c(Cl)c2)nc2cccc(Cl)c21 [Example 72, [3-Chloro-5-(7-chloro-1-propyl-1H-benzoimidazol-2-yl)-pyridin-2-yl]-pyrazin-2-yl-amine] | 96 |  |
| CCCn1c(-c2cnc(Nc3cc(C)no3)c(Cl)c2)nc2cccc(Cl)c21 [Example 73, [3-Chloro-5-(7-chloro-1-propyl-1H-benzoimidazol-2-yl)-pyridin-2-yl]-(3-methyl-isoxazol-5-yl)-amine] | 98 |  |
| CCCn1c(-c2cnc(Nc3ccc(OC)nc3)c(Cl)c2)nc2cccc(Cl)c21 [Example 74, [3-Chloro-5-(7-chloro-1-propyl-1H-benzoimidazol-2-yl)-pyridin-2-yl]-(6-methoxy-pyridin-3-yl)-amine] | 99 |  |
| CCCn1c(-c2cnc(Nc3ccc(OC)cc3)c(Cl)c2)nc2cccc(Cl)c21 [Example 75, [3-Chloro-5-(7-chloro-1-propyl-1H-benzoimidazol-2-yl)-pyridin-2-yl]-(4-methoxy-phenyl)-amine] | 99 |  |
| CCCn1c(-c2cnc(Nc3ccc(C#N)nc3)c(Cl)c2)nc2cccc(Cl)c21 [Example 75b, 5-[3-Chloro-5-(7-chloro-1-propyl-1H-benzoimidazol-2-yl)-pyridin-2-ylamino]-pyridine-2-carbonitrile] | 99 |  |
| CCCn1c(-c2cnc(Nc3ccc(NC(C)=O)nc3)c(Cl)c2)nc2cccc(Cl)c21 [Example 75c, N-{5-[3-Chloro-5-(7-chloro-1-propyl-1H-benzoimidazol-2-yl)-pyridin-2-ylamino]-pyridin-2-yl}-acetamide] | 100 |  |
| CCCn1c(-c2cnc(Nc3ccc(C(=O)OC)nc3)c(Cl)c2)nc2cccc(Cl)c21 [Example 75d, 5-[3-Chloro-5-(7-chloro-1-propyl-1H-benzoimidazol-2-yl)-pyridin-2-ylamino]-pyridine-2-carboxylic acid methyl ester] | 100 |  |
| CCCn1c(-c2cnc(Nc3ccc(N)nc3)c(Cl)c2)nc2cccc(Cl)c21 [Example 75e, N-5-[3-Chloro-5-(7-chloro-1-propyl-1H-benzoimidazol-2-yl)-pyridin-2-yl]-pyridine-2,5-diamine] |  | 100 |

| Structure (SMILES) | inhibition at 0.1 µM [%] | mGluR5-activity in [%] inhibition at 0.1 μM [%] |
| --- | --- | --- |
| CCCn1c(-c2cnc(Nc3ccc(CO)nc3)c(Cl)c2)nc2cccc(Cl)c21 [Example 75f, {5-[3-Chloro-5-(7-chloro-1-propyl-1H-benzoimidazol-2-yl)-pyridin-2-ylamino]-pyridin-2-yl}-methanol] | 92 |  |
| CCCn1c(-c2ccc(Nc3ccc(C)nc3)cc2)nc2cccc(Cl)c21 [Example 78, [4-(7-Chloro-1-propyl-1H-benzoimidazol-2-yl)-phenyl]-(6-methyl-pyridin-3-yl)-amine] | 99 |  |
| CCCn1c(-c2ccc(Nc3ccc(C)nc3)cc2)nc2ccc(F)cc21 [Example 79, [4-(6-Fluoro-1-propyl-1H-benzoimidazol-2-yl)-phenyl]-(6-methyl-pyridin-3-yl)-amine] | 65 |  |
| CCCn1c(-c2ccc(Nc3ccc(C)cc3)cc2)nc2cccc(Cl)c21 [Example 80, [4-(7-Chloro-1-propyl-1H-benzoimidazol-2-yl)-phenyl]-p-tolyl-amine] | 90 |  |
| CCCn1c(-c2ccc(Nc3ccc(Cl)cc3)cc2)nc2cccc(Cl)c21 [Example 81, (4-Chloro-phenyl)-[4-(7-chloro-1-propyl-1H-benzoimidazol-2-yl)-phenyl]-amine] | 96 |  |
| CCCn1c(-c2ccc(Nc3ccc(OC)cc3)cc2)nc2cccc(Cl)c21 [Example 82, [4-(7-Chloro-1-propyl-1H-benzoimidazol-2-yl)-phenyl]-(4-methoxy-phenyl)-amine] | 88 |  |
| CCCn1c(-c2ccc(Nc3ccc(C)cc3)cc2)nc2ccc(F)cc21 [Example 83, [4-(6-Fluoro-1-propyl-1H-benzoimidazol-2-yl)-phenyl]-p-tolyl-amine] | 52 |  |
| CCCn1c(-c2ccc(Nc3ccc(OC)cc3)nn2)nc2cccc(Cl)c21 [Example 86, [6-(7-Chloro-1-propyl-1H-benzoimidazol-2-yl)-pyridazin-3-yl]-(4-methoxy-phenyl)-amine] | 60 |  |
| CCCn1c(-c2ccc(Nc3ccc(Cl)cc3)nn2)nc2cccc(Cl)c21 [Example 87, (4-Chloro-phenyl)-[6-(7-chloro-1-propyl-1H-benzoimidazol-2-yl)-pyridazin-3-yl]-amine] | 47 |  |
| CCCn1c(-c2ccc(Nc3ccc(C)nc3)nn2)nc2cccc(Cl)c21 [Example 88, [6-(7-Chloro-1-propyl-1H-benzoimidazol-2-yl)-pyridazin-3-yl]-(6-methyl-pyridin-3-yl)-amine] | 97 |  |
| CCCn1c(-c2cnc(Nc3ccc(OC)cc3)nc2)nc2cccc(Cl)c21 [Example 90, [5-(7-Chloro-1-propyl-1H-benzoimidazol-2-yl)-pyrimidin-2-yl]-(4-methoxy-phenyl)-amine] | 102 |  |
| CCCn1c(-c2cnc(Nc3ccc(Cl)cc3)nc2)nc2cccc(Cl)c21 [Example 91, (4-Chloro-phenyl)-[5-(7-chloro-1-propyl-1H-benzoimidazol-2-yl)-pyrimidin-2-yl]-amine] | 100 |  |
| CCCn1c(-c2cnc(Nc3ccc(C)nc3)nc2)nc2cccc(Cl)c21 [Example 92, [5-(7-Chloro-1-propyl-1H-benzoimidazol-2-yl)-pyrimidin-2-yl]-(6-methyl-pyridin-3-yl)-amine] | 99 |  |
| CCCn1c(-c2cnc(Nc3ccc(OC)cc3)nc2)nc2ccc(F)cc21 [Example 93, [5-(6-Fluoro-1-propyl-1H-benzoimidazol-2-yl)-pyrimidin-2-yl]-(4-methoxy-phenyl)-amine] | 34 |  |
| CCCn1c(-c2ccc(Nc3ccc(C)nc3)c(Cl)c2)nc2ccccc21 [Example 94, [2-Chloro-4-(1-propyl-1H-benzoimidazol-2-yl)-phenyl]-(6-methyl-pyridin-3-yl)-amine] | 97 |  |
| CCCn1c(-c2ccc(Nc3ccc(C)cc3)c(Cl)c2)nc2cccc(Cl)c21 [Example 95, [2-Chloro-4-(7-chloro-1-propyl-1H-benzoimidazol-2-yl)-phenyl]-p-tolyl-amine] | 63 |  |
| CCCn1c(-c2ccc(Nc3ccc(Cl)cc3)c(Cl)c2)nc2cccc(Cl)c21 [Example 96, [2-Chloro-4-(7-chloro-1-propyl-1H-benzoimidazol-2-yl)-phenyl]-(4-chloro-phenyl)-amine] | 85 |  |

From patent US20090105266A1, “Organic compounds” (priority 2007, published 2009)
